Assay results from US20090124553A1, “Suppression of inflammation associated with transplantation using an epsilon PKC inhibitor” (priority 2007, published 2009).

Tests used:
cardiac allografts = assay: Heterotopic cardiac allograft transplantation in mice: graft beating score, toxicity, body weight; format: in vivo
Experimental: In studies performed in support of the present methods, hearts of FVB mice (H-2^q) were transplanted into C57BL/6 mice (H-2^b) to provide an animal model for allograft transplantation. Following transplantation, an isozyme-specific εPKC inhibitor was administered to the transplant recipients. The particular inhibitor was TAT47-57-εV1-2 (i.e., εV1-2), which is described herein.
The εPKC-specific inhibitor, εV1-2, or the carrier/control peptide, TAT, was administered to the recipient animals using osmotic pumps to provide continuous treatment from day 3 following allograft transplantation until sacrifice on day 30. All animals were given 20 mg/kg/day of cyclosporine A (CyA) to ensure survival.
Male […] (H-2^q) and C57BL/6J (H-2^b) mice, 6-8 weeks old, were purchased from Jackson Laboratory (Bar Harbor, Me.) and housed at the animal facility at Stanford University Medical Center (Stanford, Calif.). The εVB mice were used as allograft donors and the C57BL/6J mice were used as recipients. […]
Allograft recipient mice were monitored daily. Graft viability was assessed by direct abdominal palpation of the heterotopically transplanted hearts and expressed as beating score, assessed by the Stanford cardiac surgery lab graft scoring system (Tanaka, M. et al. (2004) Circulation 110:II194-9).

εPKC = molecular target: T1, εPKC (Rattus norvegicus, UniProt P09216); settings: from cited literature; cited from earlier work
T1 sequence (P09216 1-737): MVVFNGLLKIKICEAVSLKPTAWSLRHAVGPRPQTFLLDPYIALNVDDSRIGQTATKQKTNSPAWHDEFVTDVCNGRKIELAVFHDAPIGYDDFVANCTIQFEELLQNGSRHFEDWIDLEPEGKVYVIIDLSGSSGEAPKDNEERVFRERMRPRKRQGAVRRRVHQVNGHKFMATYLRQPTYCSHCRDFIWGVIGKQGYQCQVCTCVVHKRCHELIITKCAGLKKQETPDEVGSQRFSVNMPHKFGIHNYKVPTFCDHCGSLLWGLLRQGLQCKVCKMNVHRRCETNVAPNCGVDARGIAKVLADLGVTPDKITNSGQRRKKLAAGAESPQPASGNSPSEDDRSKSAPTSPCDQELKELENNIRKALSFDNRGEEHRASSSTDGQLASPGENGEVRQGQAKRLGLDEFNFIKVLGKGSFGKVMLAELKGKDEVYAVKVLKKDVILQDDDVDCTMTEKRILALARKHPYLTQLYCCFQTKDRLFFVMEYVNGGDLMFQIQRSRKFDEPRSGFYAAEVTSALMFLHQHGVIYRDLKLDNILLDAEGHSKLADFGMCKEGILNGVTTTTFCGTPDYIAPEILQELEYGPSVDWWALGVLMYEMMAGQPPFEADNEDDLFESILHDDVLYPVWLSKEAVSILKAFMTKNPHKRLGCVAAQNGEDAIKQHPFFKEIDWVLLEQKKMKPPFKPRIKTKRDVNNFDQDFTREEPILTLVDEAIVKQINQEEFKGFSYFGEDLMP

| Compound | toxic effects (cardiac allografts; allograft recipient mice treated day 3-30, compared to TAT-treated group) | body weight (cardiac allografts; allograft recipient mice, Mean±SEM) | function on εPKC (agonist / antagonist) (εPKC) |
| --- | --- | --- | --- |
| CC(C)C[C@H](NC(=O)[C@H](CO)NC(=O)[C@@H](NC(=O)[C@H](C)NC(=O)[C@H](CCC(=O)O)NC(=O)[C@@H](N)CSSC[C@H](N)C(=O)N[C@@H](Cc1ccc(O)cc1)C(=O)NCC(=O)N[C@@H](CCCNC(=N)N)C(=O)N[C@@H](CCCCN)C(=O)N[C@@H](CCCCN)C(=O)N[C@@H](CCCNC(=N)N)C(=O)N[C@@H](CCCNC(=N)N)C(=O)N[C@@H](CCC(N)=O)C(=O)N[C@@H](CCCNC(=N)N)C(=O)N[C@@H](CCCNC(=N)N)C(=O)N[C@@H](CCCNC(=N)N)C(=O)O)C(C)C)C(=O)N[C@@H](CCCCN)C(=O)N1CCC[C@H]1C(=O)N[C@H](C(=O)O)[C@@H](C)O [εV1-2] | did not demonstrate toxic effects | 21.7 ± 0.9 g |  |
| HNAPIGYD |  |  | functioned as a εPKC antatgonist/inhibitor |
| ψεRACK: peptide HDAPIGYD (εPKC 85-92; SEQ ID NO: 9), εPKC-selective agonist |  |  | functioned as a εPKC-selective agonist |
